Assays:
[1] = cited from earlier work
[2] = biological target: T1, native pig P2X2/3Rs in DRG neurons (Sus scrofa, UniProt F1RI70+I3L7H5); test: Whole-cell patch-clamp of α,β-meATP-induced currents in pig DRG neurons
T1 sequence (I3L7H5 1-397): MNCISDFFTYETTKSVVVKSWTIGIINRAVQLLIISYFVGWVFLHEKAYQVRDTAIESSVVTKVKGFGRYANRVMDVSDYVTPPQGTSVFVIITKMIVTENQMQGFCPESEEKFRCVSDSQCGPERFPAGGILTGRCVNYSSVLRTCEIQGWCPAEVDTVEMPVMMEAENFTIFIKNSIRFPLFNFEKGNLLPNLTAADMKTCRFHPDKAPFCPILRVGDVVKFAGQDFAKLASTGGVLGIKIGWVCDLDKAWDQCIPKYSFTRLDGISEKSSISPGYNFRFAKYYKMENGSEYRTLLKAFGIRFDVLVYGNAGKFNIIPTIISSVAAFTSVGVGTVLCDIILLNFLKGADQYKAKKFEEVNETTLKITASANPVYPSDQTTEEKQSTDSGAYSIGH
T1 sequence (F1RI70 1-417): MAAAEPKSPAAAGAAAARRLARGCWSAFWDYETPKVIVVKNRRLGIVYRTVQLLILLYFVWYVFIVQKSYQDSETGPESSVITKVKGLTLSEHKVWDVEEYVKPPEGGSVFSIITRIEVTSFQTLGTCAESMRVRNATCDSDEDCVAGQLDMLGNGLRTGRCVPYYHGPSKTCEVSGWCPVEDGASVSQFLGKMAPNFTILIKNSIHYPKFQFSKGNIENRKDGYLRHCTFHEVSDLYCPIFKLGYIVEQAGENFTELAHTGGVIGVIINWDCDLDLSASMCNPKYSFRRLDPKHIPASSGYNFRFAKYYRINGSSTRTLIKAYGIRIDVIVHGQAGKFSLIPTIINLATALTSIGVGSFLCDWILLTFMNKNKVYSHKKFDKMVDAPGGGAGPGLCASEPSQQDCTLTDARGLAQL
Procedure: For this purpose, pigs of the German Landrace breed, with an average age of 15 weeks (14.6 SD2.7) and weight of 47.3 kg (SD11.2), were euthanized using an overdose of pentobarbital 60 mg/kg body weight. Subsequently, the DRG were collected. The DRG of pigs were transferred on ice, and fine excision was performed in ice-cold DMEM F12 medium containing 10% FBS and treated with 1 mg/ml collagenase P, 1 mg/ml trypsin T1426, and 0.1 mg/ml DNAse for digestion. Then, the DRG were cut into small pieces inside the digestion medium for surface enlargement and incubated at 37°C and 5% CO2 for 120 ±30 min. After approximately 60 min in the digestion medium, the DRG were triturated using a glass pipette. After the full incubation time, they were triturated thrice using custom-pulled glass pipettes with decreasing tip diameters (from ∼1.1–1.2 to ∼0.3–0.4 mm). For further purification, the DRG were centrifuged at 500 G and 4°C twice for 4 minutes each, and the pellets were suspended in DMEM F12 with 10% FBS. They were subsequently separated from lighter cell fragments and myelin by centrifugation of a Percoll gradient containing a 60% Percoll and a 25% Percoll gradient for 20 min at 500 G. DRG neurons were plated on coverslips coated with poly-D-lysine (100 μg/ml), laminin (10 μg/ml), and fibronectin (10 μg/ml). Neurons were then cultured in neurobasal A medium supplemented with B27, penicillin, streptomycin, and L-glutamine and used for voltage-clamp recordings after 12–72 h in culture.
Whole-cell voltage-clamp recordings of DRG neurons were performed using glass electrodes with micropipette tip resistances of 1.3–3.5 MΩ, pulled and fire-polished with a Zeitz DMZ-puller. The intracellular solution contained 10 mM NaCl, 140 mM CsF, 10 mM HEPES, 1 mM EGTA, 5 mM glucose, and 5 mM TEA-Cl (adjusted to pH 7.3 using CsOH). The extracellular bathing solution contained 140 mM NaCl, 3 mM KCl, 1 mM MgCl2, 1 mM CaCl2, 10 mM HEPES, and 20 mM glucose (adjusted to pH 7.4 using NaOH). The liquid junction potential was corrected by −7.8 mV. […]

[3] = 100 µM diclofenac, 10 µM α,β-meATP, n = 11

O=C(O)Cc1ccccc1Nc1c(Cl)cccc1Cl [Diclofenac, diclofenac]
suspected cases of ageusia, dysgeusia, or taste disorders reported in the European Union ([1]; EudraVigilance up to 28/11/2022, ref http://www.adrreports.eu/de/): more than 110 cases
patients reporting an impaired taste sensation ([1]; prospective randomized clinical trial, postoperative administration, ref Attri et al., 2015): 58%
mean block ± SD, fourth application vs. mean of third and fifth application [2, 3]: 70.9 ± 37.2%
mean block ± SD, fourth application vs. preceding third application [2, 3]: 70.2 ± 34.3%
inhibition at 100 µM ([2]; DRG neuron, read-out: inhibition of α,β-meATP-elicited whole-cell currents by 100 µM diclofenac): 70.5%
